From patent publication US10787444B2, “Compounds for the modulation of myc activity” (Syros Pharmaceuticals, Inc., priority 2015, dated 2020)
Counter-ions that a name gives are not always drawn. Like-named read-outs stand apart in the source and are kept apart here.

Columns and labels:
[1] = molecular target: T1, c-Myc/Max/Ebox DNA (Homo sapiens, UniProt P01106); assay: c-Myc/Max/Ebox DNA AlphaScreen Assay; assay type: binding; details: calculated IC50 class
T1 construct: his6 (cleaved yes)
Method in brief: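 Compounds were preincubated with free c-Myc (20 nM), biotinylated single-Ebox DNA (10 nM) and Ni acceptor beads before his6-Max (5 nM) and streptavidin donor beads were added. Buffer was 50 mM HEPES pH 8.0, 150 mM NaCl, BSA, Tween20, glycogen and DTT, with DMSO ≤2%. After 2 h incubation, AlphaScreen signal was read at 680 nm excitation and 520–620 nm emission.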

[2] = tested on: human small lung cancer cell line H2171; assay: Cell Viability Assay (ATPlite); assay type: cell-based; details: read-out: H2171 Activity
Method in brief: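 H2171 cells were plated at 20,000 cells/mL and dosed immediately by pin transfer with a 10-point dose series in DMSO. After three days at 37° C, ATPlite luminescence served as the viability readout.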

[3] = Homo sapiens, NCI-H2171, 72 h, Table 2, compounds of FIG. 1, H2171 cells, three days, ATPlite, calculated IC50 class
[4] = Table 2, compounds of FIG. 1, H2171 cells, three days, ATPlite, calculated IC50 class
[5] = Homo sapiens, NCI-H2171, 72 h, Table 3, compounds of FIG. 2, H2171 cells, three days, ATPlite, calculated IC50 class

T1 sequence (P01106 whole entry): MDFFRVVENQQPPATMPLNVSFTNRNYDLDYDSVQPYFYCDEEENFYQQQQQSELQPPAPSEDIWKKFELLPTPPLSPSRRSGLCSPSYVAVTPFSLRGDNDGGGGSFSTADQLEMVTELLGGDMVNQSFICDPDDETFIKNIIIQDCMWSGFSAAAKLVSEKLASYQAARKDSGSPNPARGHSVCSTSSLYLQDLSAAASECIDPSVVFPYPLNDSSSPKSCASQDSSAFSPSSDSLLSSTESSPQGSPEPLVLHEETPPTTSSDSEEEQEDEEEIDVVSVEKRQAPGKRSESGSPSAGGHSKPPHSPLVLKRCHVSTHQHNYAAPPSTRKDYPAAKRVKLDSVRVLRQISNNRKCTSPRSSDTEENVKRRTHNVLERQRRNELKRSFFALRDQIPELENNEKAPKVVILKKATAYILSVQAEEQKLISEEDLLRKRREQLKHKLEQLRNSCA

Row | Structure (SMILES) | IC50 ([1]; Table 2, compounds of FIG. 1) [nM] | IC50 [2, 3] [nM] | also measured
1 | COCCNCCC(=O)Nc1sc2c(c1-c1nc3ccc(-c4ccc(O)nc4)cc3s1)CCNC2 [compound 374] | < 300 | < 300 | –
2 | COCCNCCC(=O)Nc1sc2c(c1-c1nc3ccc(-c4ccncc4)cc3s1)CC(C)NC2C (single isomer, unassigned) [Compound 517, N-(5,7-Dimethyl-3-(6-(pyridin-4-yl)benzo[d]thiazol-2-yl)-4,5,6,7-tetrahydrothieno[2,3-c]pyridin-2-yl)-3-((2-methoxyethyl)amino)propanamide] | < 300 | < 300 | –
3 | COCCNCCC(=O)Nc1sc2c(c1-c1nc3ccc(-c4ccc(N5CCNCC5)nc4)cc3s1)CCNC2 [compound 504] | < 300 | < 300 | –
4 | CCOC(=O)Cn1cc(-c2ccc3sc(-c4c(NC(=O)CCNCCOC)sc5c4CCNC5)nc3c2)cn1 [compound 445] | < 300 | < 300 | –
5 | CC(=O)Nc1sc2c(c1-c1nc3ccccc3s1)C(F)CN(C(C)C)C2 (stereo not shown) [Compound 220, N-(3-(benzo[d]thiazol-2-yl)-4-fluoro-6-isopropyl-4,5,6,7-tetrahydrothieno[2,3-c]pyridin-2-yl) acetamide] | – | – | IC50 ([1]; Table 3, compounds of FIG. 2): 1000 to 10000 nM; IC50 ([2]; Homo sapiens, NCI-H2171, 72 h): > 10000 nM
6 | C=Cc1cccc2sc(-c3c(NC(=O)CCNCCOC)sc4c3CCNC4)nc12 [Compound 583, 3-(2-methoxyethylamino)-N-(3-(4-vinylbenzo[d]thiazol-2-yl)-4,5,6,7-tetrahydrothieno[2,3-c]pyridin-2-yl)propanamide bis(2,2,2-trifluoroacetate)] | < 300 | < 300 | –
7 | COCCNCCC(=O)Nc1sc2c(c1-c1nc3cc(C(F)(F)F)ccc3s1)CC(C)NC2 (single isomer, unassigned) [Compound 550, 3-((2-Methoxyethyl)amino)-N-(5-methyl-3-(5-(trifluoromethyl)benzo[d]thiazol-2-yl)-4,5,6,7-tetrahydrothieno[2,3-c]pyridin-2-yl)propanamide] | < 300 | < 300 | –
8 | COCCNCCC(=O)Nc1sc2c(c1-c1nc3ccc(-c4cccnc4)cc3s1)CC(C)NC2C (single isomer, unassigned) [Compound 519, N-(5,7-Dimethyl-3-(6-(pyridin-3-yl)benzo[d]thiazol-2-yl)-4,5,6,7-tetrahydrothieno[2,3-c]pyridin-2-yl)-3-((2-methoxyethyl)amino)propanamide] | < 300 | < 300 | –
9 | COCCNCCC(=O)Nc1sc2c(c1-c1nc3cc(-c4cnn(C)c4)ccc3s1)CC(C)NC2C (single isomer, unassigned) [Compound 566, N-(5,7-Dimethyl-3-(5-(1-methyl-1H-pyrazol-4-yl)benzo[d]thiazol-2-yl)-4,5,6,7-tetrahydrothieno[2,3-c]pyridin-2-yl)-3-((2-methoxyethyl)amino)propanamide] | 1000 to 10000 | – | IC50 [2, 4]: < 300 nM
10 | CCC(C)NCCC(=O)Nc1sc2c(c1-c1nc3ccccc3s1)CC[N+](C)(C(C)C)C2 (stereo not shown) [Compound 191, 3-(benzo[d]thiazol-2-yl)-2-(3-(sec-butylamino)propanamido)-6-isopropyl-6-methyl-4,5,6,7-tetrahydrothieno[2,3-c]pyridin-6-ium] | < 300 | 1000 to 10000 | –
11 | CC(C)NCCC(=O)Nc1sc2c(c1-c1nc3cc(-c4cnn(C)c4)ccc3s1)CCNC2 [compound 161] | < 300 | < 300 | –
12 | CC(=O)Nc1sc2c(c1-c1nc3ccccc3s1)CCC(NCc1ccncc1)C2 (stereo not shown) [Compound 226, N-(3-(benzo[d]thiazol-2-yl)-6-((pyridin-4-ylmethyl)amino)-4,5,6,7-tetrahydrobenzo[b]thiophen-2-yl)acetamide] | – | – | IC50 ([1]; Table 3, compounds of FIG. 2): > 10000 nM; IC50 [2, 5]: < 300 nM
13 | CCC(C)NCCC(=O)Nc1sc2c(c1-c1nc3cc(-n4cnc(C)c4)ccc3s1)CCNC2 (stereo not shown) [compound 149] | < 300 | < 300 | –
14 | CC(=O)Nc1sc2c(c1-c1nc3cc4c(cc3s1)OCO4)CCN(C(C)C)C2 [Compound 236, N-(3-([1,3]Dioxolo[4′,5′:4,5]benzo[1,2-d]thiazol-6-yl)-6-isopropyl-4,5,6,7-tetrahydrothieno[2,3-c]pyridin-2-yl)acetamide] | – | – | IC50 ([1]; Table 3, compounds of FIG. 2): 300 to 1000 nM; IC50 [2, 5]: 300 to 1000 nM
15 | CCC(C)NCCC(=O)Nc1sc2c(c1-c1nc3cc(-c4cccnc4)ccc3s1)CCNC2 (stereo not shown) [compound 150] | < 300 | < 300 | –
16 | COCCNCCC(=O)Nc1sc2c(c1-c1nc3cc(-c4ccc(C(=O)OC)nc4)ccc3s1)CCNC2 [compound 409] | < 300 | < 300 | –
17 | COCCNCCC(=O)Nc1sc2c(c1-c1nc3c(OC)cccc3s1)CCNC2 [Compound 613, N-(3-(4-Methoxybenzo[d]thiazol-2-yl)-4,5,6,7-tetrahydrothieno[2,3-c]pyridin-2-yl)-3-((2-methoxyethyl)amino)propanamide dihydrochloride] | 1000 to 10000 | 300 to 1000 | –
18 | COCCNCCC(=O)Nc1sc2c(c1-c1nc3ccccc3s1)CCNC2 [Compound 134, N-(3-(benzo[d]thiazol-2-yl)-4,5,6,7-tetrahydrothieno[2,3-c]pyridin-2-yl)-3-((2-methoxyethyl)amino)propanamide] | < 300 | < 300 | –
19 | COc1ccc2sc(-c3c(NC(=O)CCNC(C)C)sc4c3CCNC4)nc2c1 [compound 316] | < 300 | < 300 | –
20 | CC(C)N1CCc2c(sc(NC(=O)CCNCc3cn[nH]c3)c2-c2nc3ccccc3s2)C1 [Compound 155, 3-(((1H-pyrazol-4-yl)methyl)amino)-N-(3-(benzo[d]thiazol-2-yl)-6-isopropyl-4,5,6,7-tetrahydrothieno[2,3-c]pyridin-2-yl)propanamide] | < 300 | < 300 | –
21 | O=C(CCN[C@@H]1C[C@H]2CNC[C@H]2C1)Nc1sc2c(c1-c1nc3cc(-c4ccncc4)ccc3s1)CCNC2 [Compound 606, 3-(((3aR,5s,6aS)-octahydrocyclopenta[c]pyrrol-5-yl)amino)-N-(3-(5-(pyridin-4-yl)benzo[d]thiazol-2-yl)-4,5,6,7-tetrahydrothieno[2,3-c]pyridin-2-yl)propanamide] | < 300 | 300 to 1000 | –
22 | CC(C)NCCC(=O)Nc1sc2c(c1-c1nc3ccc(C4=CCNCC4)cc3s1)CCNC2 [compound 194] | < 300 | < 300 | –
23 | CC(=O)Nc1sc2c(c1-c1nc3c(C)cccc3s1)CCNC2 [Compound 225, N-(3-(4-methylbenzo[d]thiazol-2-yl)-4,5,6,7-tetrahydrothieno[2,3-c]pyridin-2-yl)acetamide] | – | – | IC50 ([1]; Table 3, compounds of FIG. 2): 300 to 1000 nM; IC50 [2, 5]: < 300 nM
24 | COCCNCCC(=O)Nc1sc2c(c1-c1nc3cc(-c4ccncc4)ccc3s1)CC(C)NC2 (single isomer, unassigned) [Compound 549, 3-((2-Methoxyethyl)amino)-N-(5-methyl-3-(5-(pyridin-4-yl)benzo[d]thiazol-2-yl)-4,5,6,7-tetrahydrothieno[2,3-c]pyridin-2-yl)propanamide] | < 300 | < 300 | –
25 | COCCNCCC(=O)Nc1sc2c(c1-c1nc3ccc(-c4cccnc4)cc3s1)CC(C)NC2C (single isomer, unassigned) [Compound 527, N-(5,7-Dimethyl-3-(6-(pyridin-3-yl)benzo[d]thiazol-2-yl)-4,5,6,7-tetrahydrothieno[2,3-c]pyridin-2-yl)-3-((2-methoxyethyl)amino)propanamide] | 300 to 1000 | – | IC50 [2, 4]: < 300 nM
26 | CC(C)NCCC(=O)Nc1sc2c(c1-c1nc3c(-c4cnn(C)c4)cccc3s1)CCNC2 [compound 515] | < 300 | < 300 | –
